pIC50, pKd: −log10 of the molar value. Numbered stars: 1 amine (or outer) side, 2 acyl side, 3 side chain; on linkers, the order of the positions; unused ones are H or OH. Bridge positions count the residues as written; N and C are the ends. Square brackets hold non-standard residues; d marks the D form. Peptide text beside a SMILES is read from it. * marks the point of attachment. X9 = NCCNCC(CNCCN)C(=O)N[C@@H](CCC(=O)O)C(=O)NCCCOCCOCCOCCCN*; X10 = O=C([C@H](CCCc1cccc(C[*:3])c1)N[*:1])[*:2]; mXylylene = c1cc(C[*:1])cc(C[*:2])c1; PEG6 = NCCOCCOCCOCCOCCOCCOCCC(=O)O; Suc = O=C(CCC(=O)[*:2])[*:1]; X18 = NCCNCC(CNCCN)C(=O)*; Nle = CCCC[C@H](N)C(=O)O
How the values were obtained:
[1] = target: T1, FAP-expressing human WI-38 fibroblasts (Homo sapiens, UniProt Q12884); assay: Competitive FACS binding assay; conditions: pIC50 Category (FACS), competition with 3 nM Cy5-labeled compound, 4° C., 1 hour
T1 construct: FAP-expressing human WI-38 fibroblasts (ECACC) were cultured in EMEM; host or cells: WI-38 human fibroblasts
T1 sequence (Q12884 1-760): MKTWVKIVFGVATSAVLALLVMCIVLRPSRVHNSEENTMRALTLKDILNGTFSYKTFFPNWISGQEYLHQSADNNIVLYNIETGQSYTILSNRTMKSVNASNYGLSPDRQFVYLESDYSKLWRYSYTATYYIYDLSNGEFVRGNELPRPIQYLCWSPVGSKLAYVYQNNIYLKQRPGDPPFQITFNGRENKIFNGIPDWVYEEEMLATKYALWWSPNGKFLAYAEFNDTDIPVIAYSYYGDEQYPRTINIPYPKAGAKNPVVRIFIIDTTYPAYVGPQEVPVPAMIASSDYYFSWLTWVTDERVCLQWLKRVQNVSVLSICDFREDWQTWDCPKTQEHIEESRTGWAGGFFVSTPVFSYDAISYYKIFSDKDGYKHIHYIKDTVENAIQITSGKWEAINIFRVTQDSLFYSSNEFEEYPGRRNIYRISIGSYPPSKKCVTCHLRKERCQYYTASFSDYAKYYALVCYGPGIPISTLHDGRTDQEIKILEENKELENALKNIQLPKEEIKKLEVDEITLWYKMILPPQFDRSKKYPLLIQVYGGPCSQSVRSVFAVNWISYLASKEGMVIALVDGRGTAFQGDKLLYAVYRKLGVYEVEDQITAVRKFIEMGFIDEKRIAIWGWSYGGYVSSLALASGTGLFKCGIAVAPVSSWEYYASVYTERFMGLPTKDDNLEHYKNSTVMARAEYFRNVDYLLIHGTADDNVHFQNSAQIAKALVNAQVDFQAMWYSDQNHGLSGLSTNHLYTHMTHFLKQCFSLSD
Protocol: Cells were analyzed in an Attune NxT flow cytometer. […]

Human recombinant FAP [2] = target: T2, Human recombinant FAP (Homo sapiens, UniProt Q12884); assay: Surface plasmon resonance (Biacore) assay; format: binding
T2 sequence (Q12884 1-760): T1 sequence (Q12884 1-760)

Human recombinant FAP [3] = target: T2, Human recombinant FAP; assay: FRET-based FAP protease activity assay; format: biochemical; parameters: purchased R&D systems 3715-SE; conditions: pIC50 Category (Activity), FRET substrate, 37° C.

Row | SMILES | pIC50 [1] | pKd (Human recombinant FAP [2]) | pIC50 (Human recombinant FAP [3])
1 | CCCCCC(=O)N[C@H]1CSCc2cc(CSCCNC(=O)CC[C@H](C(=O)O)N3CCN(CC(=O)O)CN(CC(=O)O)C3)cc(c2)CSC[C@@H](C(=O)O)NC(=O)[C@H](Cc2ccccc2)NC(=O)[C@H](CCC(N)=O)NC(=O)[C@H]([C@@H](C)O)NC(=O)[C@@H]2CCCN2C(=O)[C@@H]2CCCN2C1=O [3BP-4162, Hex-[Cys-(tMeBn(NODAGA-AET))-Pro-Pro-Thr-Gln-Phe-Cys]-OH] | > 8.00 | > 8.00 | > 8.00
2 | CCCCCC(=O)N[C@H]1CSCc2cc(cc(CN3CCN(C(=O)C(CNCCN)CNCCN)CC3)c2)CSC[C@@H](C(=O)O)NC(=O)[C@H](Cc2ccccc2)NC(=O)[C@H](CCC(N)=O)NC(=O)[C@H]([C@@H](C)O)NC(=O)[C@@H]2CCCN2C(=O)[C@@H]2CCCN2C1=O [3BP-4168, Hex-[Cys-(tMeBn(N4Ac-PP))-Pro-Pro-Thr-Gln-Phe-Cys]-OH] | > 8.00 | > 8.00 | > 8.00
3 | CCCCCC(=O)N[C@H]1CSCc2cc(CSCCNC(=O)CCCN(C)C(=O)c3ccccc3-c3c4ccc(=N)c(S(=O)(=O)O)c-4oc4c(S(=O)(=O)O)c(N)ccc34)cc(c2)CSC[C@@H](C(=O)O)NC(=O)[C@H](Cc2ccccc2)NC(=O)[C@H](CCC(N)=O)NC(=O)[C@H]([C@@H](C)O)NC(=O)[C@@H]2CCCN2C(=O)[C@@H]2CCCN2C1=O [3BP-4182, Hex-[Cys(tMeBn(ATTO488-AET))-Pro-Pro-Thr-Gln-Phe-Cys]-OH] | 7.10 to 8.00 | 7.10 to 8.00 | 7.10 to 8.00
4 | CCCCCC(=O)N[C@H]1CSCc2cc(CSCCNC(=O)CC[C@@H]3C(=O)[O][Ga]([O]C(=O)CN(C)CC)[O]C(=O)CN(C)CCN3CC)cc(c2)CSC[C@@H](C(=O)O)NC(=O)[C@H](Cc2ccccc2)NC(=O)[C@H](CCC(N)=O)NC(=O)[C@H]([C@@H](C)O)NC(=O)[C@@H]2CCCN2C(=O)[C@@H]2CCCN2C1=O [3BP-4184, Gallium-Complex of Hex-[Cys(tMeBn(NODAGA-AET))-Pro-Pro-Thr-Gln-Phe-Cys]-OH] | > 8.00 | > 8.00 | > 8.00
5 | CCCC[C@H](NC(=O)CCC(=O)NCCCOCCOCCOCCCNC(=O)C(CNCCN)CNCCN)C(=O)N[C@H]1CSCc2cccc(c2)CSC[C@@H](C(=O)O)NC(=O)[C@H](Cc2ccccc2)NC(=O)[C@H](CCC(N)=O)NC(=O)[C@H]([C@@H](C)O)NC(=O)[C@@H]2CCCN2C(=O)[C@@H]2CCCN2C1=O [3BP-4219, N4Ac-Ttds-Nle-[Cys-(3MeBn)-Pro-Pro-Thr-Gln-Phe-Cys]-OH] | 7.10 to 8.00 | > 8.00 | > 8.00
6 | CCCC[C@H](NC(=O)CCOCCOCCOCCOCCOCCOCCNC(=O)C(CNCCN)CNCCN)C(=O)N[C@H]1CSCc2cccc(c2)CSC[C@@H](C(=O)O)NC(=O)[C@H](Cc2ccccc2)NC(=O)[C@H](CCC(=O)O)NC(=O)[C@H]([C@@H](C)O)NC(=O)[C@@H]2CCCN2C(=O)[C@@H]2CCCN2C1=O [3BP-4221, N4Ac-PEG6-Nle-[Cys-(3MeBn)-Pro-Pro-Thr-Glu-Phe-Cys]-OH] ({X18-PEG6}-[Nle]CPPTEFC-OH; linker 2-8 via mXylylene) | 7.10 to 8.00 | > 8.00 | 7.10 to 8.00
7 | CCCC[C@H](NC(=O)CCC(=O)NCCCOCCOCCOCCCNC(=O)[C@H](CCC(=O)O)NC(=O)C(CNCCN)CNCCN)C(=O)N[C@H]1CSCc2cccc(c2)CCC[C@@H](C(=O)O)NC(=O)[C@H](Cc2ccccc2)NC(=O)[C@H](CCC(=O)O)NC(=O)[C@H]([C@@H](C)O)NC(=O)[C@@H]2CCCN2C(=O)[C@@H]2CCCN2C1=O [3BP-4222, N4Ac-Glu-Ttds-Nle-[Cys-(3MeBn)-Pro-Pro-Thr-Glu-Phe-Cys]-OH] ({X9-Suc}-[Nle]CPPTEF[X10]-OH; thioether 2-8) | 7.10 to 8.00 | > 8.00 | 7.10 to 8.00
